Source: patent US7259140B2, “Heparin-binding peptides and uses thereof” (Thomas Jefferson University, priority 2003, dated 2007)
Ends that are not written are not given here.

Columns and labels:
[1] = system: anti-Factor Xa Activity of Unfractionated Heparin; assay: Anti-Factor Xa assay: neutralization of unfractionated heparin in citrate or plasma in vitro; format: biochemical, human; conditions: for Unfractionated Heparin Neutralized: UFH 0.7 U/ml
Procedure, shortened: (§1)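 Chromogenic anti-Factor Xa kit run with UFH, enoxaparin (Lovenox) or danaparoid (Orgaran) in 0.32% citrate or citrated plasma from three volunteers. Heparin/ATIII complex formed, peptide added, then Factor Xa and dye substrate; absorbance at 405 nm, inversely proportional to remaining anti-Factor Xa activity.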

[2] = system: unfractionated heparin (thrombin-induced clot formation); assay: Thrombin neutralization assay: clotting time of citrated plasma in the presence of unfractionated heparin; format: biochemical, human; conditions: UFH 0.5 IU/ml
Procedure, shortened: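 Citrated plasma from three donors was combined with unfractionated heparin (0.5 IU anti-thrombin activity/ml) and heparin-binding peptide for 1 min at room temperature in glass tubes. Thrombin was then added, and clotting time was determined by visual observation of clot formation.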

[3] = system: Anti-Factor Xa Activity of the Non-Heparin Glycosaminoglycan Orgaran ®; assay: Anti-Factor Xa assay: neutralization of Orgaran in citrate or plasma in vitro; format: biochemical, human
Procedure, shortened: as §1

[4] = Hemodynamic effects in rats without prior Lovenox
[5] = Hemodynamic effects in rats after administration of the LMWH Lovenox; conditions: in the presence of LMWH Lovenox
Description: Next, experiments were performed in which the animals were treated with the peptides after the administration of the LMWH Lovenox®, as would happen in the clinical situation, because binding of peptides to LMWH would be expected to reduce the effects of the peptides on hemodynamic function.

platelets = assay: Platelet aggregation with aggregation-inducing agents; format: cell-based, human; conditions: 12 μg/ml; Lovenox 0.5 U/ml; collagen, ADP, ristocetin, epinephrine, SFFLRN, A23187
Procedure, shortened: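 Plasma from six donors, platelets equilibrated 1 min before agonist (collagen, ADP, ristocetin, epinephrine, SFFLRN, A23187; several concentrations each). Heparin-binding peptides at 12 μg/ml, Lovenox at 0.5 U/ml, protamine also tested. Percent aggregation monitored over 5 min.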

In the case of “ARKKAAKAARKKAAKAARKKAAKAVLVLVLVL [(ARKKAAKA)3VLVLVLVL]”, the “effectiveness in neutralizing UFH” value [1] is reported as “most effective peptide”, the “Unfractionated Heparin Neutralized” value ([1]; 1 μg/ml Peptide, A Plasma) is reported as 0.258 ± 0.153 U/ml and the “Unfractionated Heparin Neutralized” value ([1]; 1 μg/ml Peptide, B Plasma) is reported as 0.247 ± 0.034 U/ml. The “Unfractionated Heparin Neutralized” value ([1]; 1 μg/ml Peptide, C Plasma) was 0.116 ± 0.032 U/ml, the “Unfractionated Heparin Neutralized” value ([1]; 1 μg/ml Peptide, Citrate) was 0.072 ± 0.042 U/ml and the “Unfractionated Heparin Neutralized” value ([1]; 6 μg/ml Peptide, A Plasma) was 0.580 ± 0.067 U/ml. The “Unfractionated Heparin Neutralized” value ([1]; 6 μg/ml Peptide, B Plasma) was 0.597 ± 0.046 U/ml, the “Unfractionated Heparin Neutralized” value ([1]; 6 μg/ml Peptide, C Plasma) was 0.582 ± 0.035 U/ml and the “Unfractionated Heparin Neutralized” value ([1]; 6 μg/ml Peptide, Citrate) was 0.651 ± 0.084 U/ml. The “Unfractionated Heparin Neutralized” value ([1]; 12 μg/ml Peptide, A Plasma) was 0.562 ± 0.050 U/ml, the “Unfractionated Heparin Neutralized” value ([1]; 12 μg/ml Peptide, B Plasma) was 0.586 ± 0.053 U/ml and the “Unfractionated Heparin Neutralized” value ([1]; 12 μg/ml Peptide, C Plasma) was 0.554 ± 0.049 U/ml. The “Unfractionated Heparin Neutralized” value ([1]; 12 μg/ml Peptide, Citrate) was 0.505 ± 0.049 U/ml, the “Unfractionated Heparin Neutralized” value ([1]; 60 μg/ml Peptide, A Plasma) was 0.535 ± 0.054 U/ml and the “Unfractionated Heparin Neutralized” value ([1]; 60 μg/ml Peptide, B Plasma) was 0.444 ± 0.019 U/ml. For the same sequence, the “Unfractionated Heparin Neutralized” value ([1]; 60 μg/ml Peptide, C Plasma) was 0.539 ± 0.010 U/ml, the “Unfractionated Heparin Neutralized” value ([1]; 60 μg/ml Peptide, Citrate) was 0.528 ± 0.039 U/ml and the “Unfractionated Heparin Neutralized” value ([1]; 120 μg/ml Peptide, A Plasma) was 0.490 ± 0.049 U/ml. For the same sequence, the “Unfractionated Heparin Neutralized” value ([1]; 120 μg/ml Peptide, B Plasma) was 0.279 ± 0.038 U/ml, the “Unfractionated Heparin Neutralized” value ([1]; 120 μg/ml Peptide, C Plasma) was 0.460 ± 0.057 U/ml and the “Unfractionated Heparin Neutralized” value ([1]; 120 μg/ml Peptide, Citrate) was 0.510 ± 0.117 U/ml. The “Time for clot formation” value ([2]; 0.30 μg peptide/0.1 ml, plasma A) was 37.00 ± 2.16 s, the “Time for clot formation” value ([2]; 0.30 μg peptide/0.1 ml, plasma B) was 40.00 ± 1.63 s and the “Time for clot formation” value ([2]; 0.35 μg peptide/0.1 ml, plasma B) was 28.33 ± 1.70 s. For the same sequence, the “Time for clot formation” value ([2]; 0.35 μg peptide/0.1 ml, plasma C) was 45.33 ± 2.05 s, the “Time for clot formation” value ([2]; 0.40 μg peptide/0.1 ml, plasma A) was 20.00 ± 0.82 s and the “Time for clot formation” value ([2]; 0.40 μg peptide/0.1 ml, plasma B) was 26.67 ± 1.25 s. For the same sequence, the “Time for clot formation” value ([2]; 0.40 μg peptide/0.1 ml, plasma C) was 32.33 ± 2.05 s, the “Time for clot formation” value ([2]; 0.50 μg peptide/0.1 ml, plasma A) was 17.67 ± 1.25 s and the “Time for clot formation” value ([2]; 0.50 μg peptide/0.1 ml, plasma B) was 23.67 ± 0.47 s. For the same sequence, the “Time for clot formation” value ([2]; 0.50 μg peptide/0.1 ml, plasma C) was 25.67 ± 0.47 s, the “Orgaran Neutralized” value ([3]; 1 μg/ml Peptide, A Plasma) was 0.028 ± 0.016 U/ml and the “Orgaran Neutralized” value ([3]; 1 μg/ml Peptide, B Plasma) was 0.026 ± 0.011 U/ml. The “Orgaran Neutralized” value ([3]; 1 μg/ml Peptide, C Plasma) was 0.035 ± 0.010 U/ml, the “Orgaran Neutralized” value ([3]; 1 μg/ml Peptide, Citrate) was 0.078 ± 0.031 U/ml and the “Orgaran Neutralized” value ([3]; 6 μg/ml Peptide, A Plasma) was 0.050 ± 0.026 U/ml. The “Orgaran Neutralized” value ([3]; 6 μg/ml Peptide, B Plasma) was 0.049 ± 0.021 U/ml, the “Orgaran Neutralized” value ([3]; 6 μg/ml Peptide, C Plasma) was 0.075 ± 0.005 U/ml and the “Orgaran Neutralized” value ([3]; 6 μg/ml Peptide, Citrate) was 0.114 ± 0.007 U/ml. For the same sequence, the “Orgaran Neutralized” value ([3]; 12 μg/ml Peptide, A Plasma) was 0.109 ± 0.019 U/ml, the “Orgaran Neutralized” value ([3]; 12 μg/ml Peptide, B Plasma) was 0.083 ± 0.016 U/ml and the “Orgaran Neutralized” value ([3]; 12 μg/ml Peptide, C Plasma) was 0.114 ± 0.010 U/ml. The “Orgaran Neutralized” value ([3]; 12 μg/ml Peptide, Citrate) was 0.227 ± 0.017 U/ml, the “Orgaran Neutralized” value ([3]; 60 μg/ml Peptide, A Plasma) was 0.281 ± 0.036 U/ml and the “Orgaran Neutralized” value ([3]; 60 μg/ml Peptide, B Plasma) was 0.258 ± 0.013 U/ml. For the same sequence, the “Orgaran Neutralized” value ([3]; 60 μg/ml Peptide, C Plasma) was 0.248 ± 0.020 U/ml, the “Orgaran Neutralized” value ([3]; 60 μg/ml Peptide, Citrate) was 0.380 ± 0.021 U/ml and the “Orgaran Neutralized” value ([3]; 120 μg/ml Peptide, A Plasma) was 0.366 ± 0.010 U/ml. For the same sequence, the “Orgaran Neutralized” value ([3]; 120 μg/ml Peptide, B Plasma) was 0.320 ± 0.010 U/ml, the “Orgaran Neutralized” value ([3]; 120 μg/ml Peptide, C Plasma) was 0.296 ± 0.011 U/ml and the “Orgaran Neutralized” value ([3]; 120 μg/ml Peptide, Citrate) was 0.345 ± 0.032 U/ml. The “effect on blood pressure” value ([4]; 2 mg per rat, no Lovenox) was “In most rats no drop in blood pressure was seen”, the “duration of transient blood pressure drop” value ([4]; in one rat) was 1 to 2 min and the “effect on blood pressure and heart rate / toxicity” value [5] was “no, or minimal, adverse effects on blood pressure or heart rate”. The “effect on platelet aggregation” value (platelets) was “no significant inhibition or enhancement of aggregation”.
